Assay results reported in ChEMBL document CHEMBL1149218, “Predicting pharmacophore signals for post-coital antifertility activity of 1-trifluoromethyl-1,2,2-triphenylethylene derivatives: a statistical approximation using E-state index” (2004).

Tested on: Rattus norvegicus
Assay: Effective oral dose of compound for Post-coital antifertility activity was determined in rats
Format: functional
Parameters: unit not given here

SMILES | pED50
Fc1ccccc1C(=C(c1ccccc1)c1ccccc1)C(F)(F)F | 1.204
Fc1ccc(/C(=C(/c2ccccc2)C(F)(F)F)c2ccccc2)cc1 | 2.491
FC(F)(F)C(=C(c1ccccc1)c1ccccc1)c1cccc(C(F)(F)F)c1 | 1.477
FC(F)(F)C(=C(c1ccccc1)c1ccccc1)c1cccs1 | 2.914
FC(F)(F)C(F)(F)C(=C(c1ccccc1)c1ccccc1)c1ccccc1 | 2.301
COc1ccc(/C(=C(/c2ccccc2)C(F)(F)F)c2ccccc2)cc1 | 1.114
COc1ccc(C(=C(c2ccccc2)c2ccccc2)C(F)(F)F)cc1 | 2.079
Fc1ccc(C(=C(c2ccccc2)c2ccccc2)C(F)(F)F)cc1 | 1.602
FC(F)(F)C(c1ccccc1)C(c1ccccc1)c1ccccc1 (stereo not drawn) | 2.991
Fc1cccc(C(=C(c2ccccc2)c2ccccc2)C(F)(F)F)c1 | 1.204
COc1ccc(/C(=C(\c2ccccc2)C(F)(F)F)c2ccccc2)cc1 | 1.602
FC(F)(F)C(=C(c1ccccc1)c1ccccc1)c1ccc(C(F)(F)F)cc1 | 1.477
COc1ccc(C(=C(c2ccccc2)C(F)(F)F)c2ccc(OC)cc2)cc1 | 2.079
COc1ccc(/C(=C(/c2ccc(F)cc2)C(F)(F)F)c2ccccc2)cc1 | 1.301
FC(F)(F)C(=C(c1ccccc1)c1ccccc1)c1ccc(Cl)cc1 | 1.477
FC(F)(F)C(=C(c1ccccc1)c1ccccc1)c1ccccc1 | 2.079
FC(F)(F)C(=C(c1ccccc1)c1ccccc1)c1ccc(C(F)(C(F)(F)F)C(F)(F)F)cc1 | 1.204
Cc1ccc(C(=C(c2ccccc2)c2ccccc2)C(F)(F)F)cc1 | 2.681
